In patent US12171728B2, “Mixture of resveratrol supported on metal hydroxide and non-supported pure resveratrol for treating female fertility” (priority 2018, dated 2024):

Columns and labels:
[1] = Pharmacokinetics in humans of resveratrol formulations (plasma profile of total resveratrol); assay type: in vivo, human; details: voluntary subjects, 180 mg
Experimental: FIG. 1. Plasma profile of total resveratrol (free resveratrol+its metabolites) following the administration to voluntary subjects of a single dose of resveratrol of 180 mg […]® (circles), from pure resveratrol not supported (squares) and a simulation of the combination of resveratrol from […]® and pure resveratrol not supported in the ratio 1:2 (triangles).
The pharmacokinetics in humans of different types of resveratrol formulations. The administration of 180 mg Resveratrol supported on magnesium hydroxide ([…]®) in voluntary subjects leads to a transient increase in total concentration (free resveratrol+resveratrol metabolites) plasmatic resveratrol with Time at the peak concentration of 30 minutes from administration, followed by a decay of about 40% in the period up to 180 minutes from administration.

female fertility = assay: Case reports of fertility enhancement in infertile/sub-fertile women; assay type: in vivo, human
From the text: A person is […] and is classified as infertile since has tried to conceive for more than 12 months without the initiation of a state of pregnancy. They are not affected by polycystic ovary syndrome according to the Rotterdam criteria.
The patient, a person classified as being sub-fertile because they have been trying to conceive for more than 12 months unsuccessfully. They are not affected by metabolic disorders such as polycystic ovary syndrome according to the Rotterdam criteria.
A person is […] and is classified as a sub-fertile because they have been trying to conceive for more than 12 months without starting a state of pregnancy. It is not affected by metabolic disorders such as polycystic ovary syndrome according to the Rotterdam criteria.

## Oc1ccc(C=Cc2cc(O)cc(O)c2)cc1 [pure resveratrol, resveratrol]
[1]
  Total plasma concentration of resveratrol compared with REVIFAST: absolute lesser value
Female fertility; case n1, infertile, 100 mg per day for 3 months
  Pregnancy outcome: without having a pregnancy
Female fertility; case n1, dosage doubled to 200 mg
  Pregnancy outcome: has not changed its situation
